This note sets out measurements from patent US20200239587A1, “SENSITIZATION OF TUMORS TO THERAPIES THROUGH ENDOGLIN ANTAGONISM” (Cedars-Sinai Medical Center, priority 2016, published 2020).

Common to all, as to assay type: cell-based, human
In experiment [1] the test system is ID1 mRNA expression by Rv1 cells and mouse wild-type fibroblasts. Kind of experiment: Species specificity of CD105 antagonists, BMP-induced ID1 mRNA. As to conditions: 1 μg/ml; BMP 50 ng/mL, 6 hours. The protocol: All cells were pre-treated overnight in serum free media, then incubated with BMP (50 ng/mL) in the presence or absence of differing concentrations of concentrations of TRC105 or M1043 for 6 hours (mean+/−SD). Within each group, the left column depicts human PCa and right column depicts mouse fibroblasts.
Total RNA was extracted using the RNeasy kit (Qiagen). 1 μg RNA was used for cDNA synthesis using iSCRIPT cDNA synthesis kit (1708891, Bio-Rad). Quantitative RT-PCR was performed with 5 replicates using the Step One Real-Time PCR system (Applied Biosystems). Gene mRNA expression was normalized to GAPDH. Primer sequences can be found in the Table 1. For RNA-sequencing, Ion Proton AmpliSeq Transcriptome RNA Sequencing was performed achieving an average of 3M reads. We mapped an average of 88% of the reads to the human genome with Torrent Suite version 4.4.2.

For experiment [2], the system named is BMP dependent CD105 signaling in 22Rv1. Briefly: BMP-stimulated phosphorylated-SMAD1/5 and ID1 expression. Conditions: stimulated with 50 ng/mL BMP. The protocol:
FIG. 18A) Cell surface CD105 expression was measured in PC3, C42b, and 22Rv1 72 hours after 4 Gy irradiation treatment by FACS analysis and compared to cells not irradiated (control). FIG. 18B) Cell surface CD105 expression was measured in cell lines following a dose range of irradiation (0, 2, 4, or 6 Gy). FIG. 18C) The durability of cell surface CD105 expression in 22Rv1 was determined 0, 0.5, 4, 8, 24, 48, 72, 120, and 168 hours following 4 Gy irradiation. CD105 cell surface expression fold change was normalized to levels expressed prior to irradiation. FIG. 18D) Western blot for phosphorylated-Smad1/5 was measured in CW22Rv1 cells in the presence or absence of serum starvation and treatment with 50 ng/ml BMP4 or 1 μg/ml TRC105. β-actin expression served as the loading control. FIG. 18E) Annexin-V expression was measured in 22Rv1 cells by FACS analysis 5 days following 4 Gy irradiation in the presence and absence of TRC105. FIG. 18F) Clonogenic assay was measured 10 days following irradiation of CW22Rv1 and C42b cells in a dose range of 0 to 6 Gy in the presence of 1 μg/ml IgG or TRC105. […]
Total RNA was extracted using the RNeasy kit (Qiagen). […] Quantitative RT-PCR was performed with 5 replicates using the Step One Real-Time PCR system (Applied Biosystems). […] For RNA-sequencing, Ion Proton AmpliSeq Transcriptome RNA Sequencing was performed achieving an average of 3M reads. […]

In another experiment the test system is HPAF-II. Kind of experiment: Clonogenic survival assay with radiation. Conditions: p53 mutant pancreatic cancer cell line. The protocol: (§1) Assays were performed on cell lines with p53 null prostate cancer cell line, FIG. 23A) PC3 and two p53 mutant pancreatic cancer cell lines, FIG. 23B) MIAPACA-2 and FIG. 23C) HPAF-II with indicated doses of radiation. Breast cancer cell lines with intact p53, FIG. 23D) MCF7 and mutant yet functional p53, FIG. 23E) MDA-MB23 were however radio-sensitized by the 1 μg/ml TRC105.

The next experiment has as its system MCF7. Briefly: Clonogenic survival assay with radiation. Conditions: breast cancer cell line with intact p53; 1 μg/ml TRC105. The protocol:
as §1

The next experiment relates to MDAMB231. Briefly: Clonogenic survival assay with radiation. As to conditions: breast cancer cell line with mutant yet functional p53; 1 μg/ml TRC105. The protocol: as §1
The subject of a further experiment is MIAPACA-2. Briefly: Clonogenic survival assay with radiation. Conditions: p53 mutant pancreatic cancer cell line. The protocol: as §1
A further experiment has as its system PC3. Briefly: Clonogenic survival assay with radiation. As to conditions: p53 null prostate cancer cell line. The protocol:
as §1

The next experiment relates to PC3 cells. Kind of experiment: Cell death assay with docetaxel and TRC105. As to conditions: different concentrations of docetaxel and TRC105. The protocol:
The PC3 cells used in the cell death assay were treated with different concentrations of docetaxel in the presence of different concentrations of TRC105.

Entries after “also recorded” stand apart in the source; their conditions may differ.

As for “TRC105: partially humanized monoclonal antibody that blocks BMP signaling; human-specific CD105 (endoglin) neutralizing antibody from Tracon Pharmaceuticals”, the cross-species reactivity result in experiment [1] was “no cross-species reactivity”. Moreover, the “minimum dose that effectively blocked phosphorylated-SMAD1/5 activation and expression of ID1” value in experiment [2] was determined as 1 µg/mL. The “radiation sensitivity, clonogenic response” value with HPAF-II and in the experiment with MIAPACA-2 was “neither the HPAF-II nor MIAPACA-2 cell lines treated with radiation showed a change in clonogenic response” in each case. The entries for the “radiation sensitivity, clonogenic survival” value in the experiment with MCF7, with MDAMB231 and in the experiment with PC3 were “positively sensitized to irradiation; also recorded: radio-sensitized”, “positively sensitized to irradiation; also recorded: radio-sensitized” and “no evidence of radiation sensitization”, respectively. For the same substance, the “sensitization to docetaxel, cell death” value with PC3 cells is recorded as “taxane sensitizer”.
